Tests used:
PCSK9 = PCSK9 (Homo sapiens, UniProt Q8NBP7); test: BODIPY-LDL uptake assay in HepG2 cells; assay type: cell-based; conditions: 5 μg/ml PCSK9, BODIPY-LDL
Method in brief: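 Compounds pre-incubated 60 min with 5 μg/ml PCSK9 (0.2% DMSO), then added to HepG2 cells for 16 h; 1 μg/ml BODIPY-LDL added in serum-free medium for 5 h. Fluorescence (Ex 485/Em 520 nm) normalized to protein; PCSK9-only wells = 0%, no-PCSK9 wells = 100% uptake, giving percent increase in LDL uptake.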

High Fat Diet C57 Mice = test: LDL-C lowering activity in high fat diet C57 mice; assay type: in vivo; conditions: Mus musculus, po, 168 h; C57 mice on high fat diet; 30 mg/Kg orally once a day, 7 days treatment, blood on day 7; read-out: % Change Vs Vehicle Control in LDLc
Procedure: LDL-C Lowering Activity—in High Fat Diet C57 Mice
The in-vivo LDL-c lowering for test compound was tested in C57 mice which were kept on high fat diet for 4 weeks and the blood was collected by retro-orbital sinus puncture method under light ether anesthesia on day 0 (pretreatment). Animal are grouped based on LDL-c levels, after that 7 days treatment with vehicle or test compound orally at a dose of 30 mpk dose once a day was given. On completion of treatment on day 7 of the treatment the blood was collected for LDL-c and TC levels measurement.

PCSK9, sequence (Q8NBP7 153-692): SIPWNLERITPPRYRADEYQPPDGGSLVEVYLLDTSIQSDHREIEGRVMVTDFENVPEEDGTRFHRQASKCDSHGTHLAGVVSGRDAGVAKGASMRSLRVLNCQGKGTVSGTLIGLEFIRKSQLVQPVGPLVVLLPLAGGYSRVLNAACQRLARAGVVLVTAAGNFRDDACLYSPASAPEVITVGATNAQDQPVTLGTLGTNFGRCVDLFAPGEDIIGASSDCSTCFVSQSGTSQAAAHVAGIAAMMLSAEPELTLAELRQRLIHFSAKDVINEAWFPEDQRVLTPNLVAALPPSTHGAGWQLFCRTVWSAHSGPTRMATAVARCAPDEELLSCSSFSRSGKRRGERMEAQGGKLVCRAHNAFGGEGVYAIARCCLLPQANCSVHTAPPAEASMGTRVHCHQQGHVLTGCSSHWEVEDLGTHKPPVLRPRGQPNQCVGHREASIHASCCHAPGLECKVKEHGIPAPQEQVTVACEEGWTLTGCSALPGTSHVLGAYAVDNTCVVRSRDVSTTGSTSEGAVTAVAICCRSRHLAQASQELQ

Row | SMILES | % increase in LDL Uptake (PCSK9; 1 μM test compound) [%] | % increase in LDL Uptake (PCSK9; 10 μM test compound) [%] | % increase in LDL Uptake (PCSK9; 30 μM test compound) [%] | change in vivo at 30 mg/kg (High Fat Diet C57 Mice) [%]
1 | O=C(c1ccc(C2(O)COC2)cc1)N1CCC(c2ccc(C(F)(F)F)cc2)CC1 [Example 1, (4-(3-hydroxyoxetan-3-yl)phenyl)(4-(4-(trifluoromethyl)phenyl)piperidin-1-yl)methanone] | 25 | 135 | 130 | -52 ± 4
2 | COC1(c2ccc(C(=O)N3CCC(c4ccc(C(F)(F)F)cc4)CC3)cc2)COC1 [Example 2, (4-(3-methoxyoxetan-3-yl)phenyl)(4-(4-(trifluoromethyl)phenyl)piperidin-1-yl)methanone] | 13 | 86 | 172 | -45 ± 5
3 | O=C(c1ccc(C2(O)COC2)cc1)N1CCN(c2ccc(C(F)(F)F)cc2)CC1 [Example 6, (4-(3-hydroxyoxetan-3-yl)phenyl)(4-(4-(trifluoromethyl)phenyl)piperazin-1-yl)methanone] | 0 | 106 | 179 | 0.6 ± 9
4 | OC1(c2ccc(N3CCC(c4ccc(C(F)(F)F)cc4)CC3)cc2)COC1 [Example 8, 3-(4-(4-(4-(trifluoromethyl)phenyl)piperidin-1-yl)phenyl)oxetan-3-ol] | 0 | 73 | 114 | -30 ± 8
5 | O=C(c1ccc(C2(O)COC2)cc1)N1CC2CC(c3ccc(C(F)(F)F)cc3)CC2C1 (stereo not drawn) [Example 10, (4-(3-hydroxyoxetan-3-yl)phenyl)(5-(4-(trifluoromethyl)phenyl)hexahydrocyclopenta[c]pyrrol-2(1H)-yl)methanone] | 0 | 273 | 347 | -15 ± 8
6 | O=C(c1ccc(C2(O)COC2)cc1)N1CC2CN(c3ccc(C(F)(F)F)cc3)CC2C1 (stereo not drawn) [Example 11, (4-(3-hydroxyoxetan-3-yl)phenyl)(5-(4-(trifluoromethyl)phenyl)hexahydropyrrolo[3,4-c]pyrrol-2 (1H)-yl)methanone] | 6 | 59 | 116 | -48 ± 5
7 | O=C(c1cccc(C2(OCC3CC3)COC2)c1)N1CC2CN(c3ccc(C(F)(F)F)cc3)CC2C1 (stereo not drawn) [Example 181, (3-(3-(cyclopropylmethoxy)oxetan-3-yl)phenyl)(5-(4-(trifluoromethyl)phenyl)hexahydropyrrolo[3,4-c]pyrrol-2(1H)-yl)methanone] | 3 | 19 | 26 | 
8 | COC1(c2cccc(NC(=O)N3CC4CN(c5ccc(C(F)(F)F)cc5)CC4C3)c2)COC1 (stereo not drawn) [Example 183, N-(3-(3-methoxyoxetan-3-yl)phenyl)-5-(4-(trifluoromethyl)phenyl) hexahydropyrrolo[3,4-c]pyrrole-2(1H)-carboxamide] | 32 | 15 | 88 | 
9 | COC1(c2ccc(C(=O)N3CCCN(c4ccc(C(F)(F)F)cc4)CC3)cc2)COC1 [Example 185, (4-(3-methoxyoxetan-3-yl)phenyl)(4-(4-(trifluoromethyl)phenyl)-1,4-diazepan-1-yl)methanone] | 0 | 29 | 109 | 
10 | O=C(c1ccc(C2(O)COC2)cc1)N1CCC2(CCN(c3ccc(C(F)(F)F)cc3)CC2)C1 [Example 186, (4-(3-hydroxyoxetan-3-yl)phenyl)(8-(4-(trifluoromethyl)phenyl)-2,8-diazaspiro[4.5]decan-2-yl)methanone] | 17 | 73 | 31 | 
11 | O=C(c1ccc(C2(OCCO)COC2)cc1)N1CCC(c2ccc(C(F)(F)F)cc2)CC1 [Example 188, (4-(3-(2-hydroxyethoxy)oxetan-3-yl)phenyl)(4-(4-(trifluoromethyl)phenyl)piperidin-1-yl)methanone] | 0 | 152 | 136 | 
12 | CCSCCOC1(c2ccc(C(=O)N3CCC(c4ccc(C(F)(F)F)cc4)CC3)cc2)COC1 [Example 189, (4-(3-(2-(ethylthio)ethoxy)oxetan-3-yl)phenyl)(4-(4-(trifluoromethyl)phenyl)piperidin-1-yl)methanone] | 0 | 116 | 19 | 
13 | CCS(=O)(=O)CCOC1(c2ccc(C(=O)N3CCC(c4ccc(C(F)(F)F)cc4)CC3)cc2)COC1 [Example 190, (4-(3-(2-(ethylsulfonyl)ethoxy)oxetan-3-yl)phenyl)(4-(4-(trifluoromethyl)phenyl)piperidin-1-yl)methanone] | 0 | 90 | 62 | 
14 | COC(=O)c1ccc(C2(O)CC3CN(C(=O)c4ccc(C5(O)COC5)cc4)CC3C2)cc1 (stereo not drawn) [Example 198, Methyl 4-(5-hydroxy-2-(4-(3-hydroxyoxetan-3-yl)benzoyl)octahydrocyclopenta[c]pyrrol-5-yl)benzoate] | −8 | 25 | 3 | 

Further lines, with some results ahead:

Row | % increase in LDL Uptake (PCSK9; 1 μM test compound) [%] | % increase in LDL Uptake (PCSK9; 10 μM test compound) [%] | % increase in LDL Uptake (PCSK9; 30 μM test compound) [%] | SMILES | change in vivo at 30 mg/kg (High Fat Diet C57 Mice) [%]
15 | 0 | 0 | 73 | CN1CCN(c2cc(NC(=O)C3CCN(c4ccc(C(F)(F)F)cc4)CC3)cc(C3(O)COC3)c2)CC1 [Example 201, N-(3-(3-hydroxyoxetan-3-yl)-5-(4-methylpiperazin-1-yl)phenyl)-1-(4-(trifluoromethyl)phenyl)piperidine-4-carboxamide] | 
16 | 16 | 0 | 36 | COC1(c2ccc(C(=O)N3CC4=C(C3)CN(c3ccc(C(F)(F)F)cc3)C4)cc2)COC1 [Example 202, (4-(3-methoxyoxetan-3-yl)phenyl)(5-(4-(trifluoromethyl)phenyl)-3,4,5,6-tetrahydropyrrolo[3,4-c]pyrrol-2(1H)-yl)methanone] | 
17 | 56 | 14 | 189 | COC1(c2cccc(C(=O)N3CC4CN(c5ccc(C(F)(F)F)cn5)CC4C3)c2)COC1 (stereo not drawn) [Example 208, (3-(3-methoxyoxetan-3-yl)phenyl)(5-(5-(trifluoromethyl)pyridin-2-yl)hexahydropyrrolo[3,4-c]pyrrol-2 (1H)-yl)methanone] | 
18 | 20 | 137 | 21 | COC1(c2ccc(C(=O)N3CC4CN(c5ccc(C(F)(F)F)cn5)CC4C3)cc2)COC1 (stereo not drawn) [Example 209, (4-(3-methoxyoxetan-3-yl)phenyl)(5-(5-(trifluoromethyl)pyridin-2-yl)hexahydropyrrolo[3,4-c]pyrrol-2(1H)-yl)methanone] | 
19 | 0 | 107 | 0 | O=C(c1cccc(C2(O)COC2)c1)N1CC2CN(c3ccc(C(F)(F)F)cn3)CC2C1 (stereo not drawn) [Example 210, (3-(3-hydroxyoxetan-3-yl)phenyl)(5-(5-(trifluoromethyl)pyridin-2-yl)hexahydropyrrolo[3,4-c]pyrrol-2(1H)-yl)methanone] | 
20 | 8 | 4 | 48 | O=C(c1ccc(C2(O)COC2)cc1)N1CCC(c2ccc(C(F)(F)F)cn2)CC1 [Example 212, (4-(3-hydroxyoxetan-3-yl)phenyl)(4-(5-(trifluoromethyl)pyridin-2-yl)piperidin-1-yl)methanone] | 
21 | 0 | 0 | 37 | COC1(c2ccc(C(=O)N3CCC(c4ccc(C(F)(F)F)nc4)CC3)cc2)COC1 [Example 213, (4-(3-methoxyoxetan-3-yl)phenyl)(4-(6-(trifluoromethyl)pyridin-3-yl)piperidin-1-yl)methanone] | 
22 | 0 | 5 | 128 | O=C(c1ccc(C2(O)COC2)cc1)N1CCN(c2ccc(C(F)(F)F)nc2)CC1 [Example 217, (4-(3-hydroxyoxetan-3-yl)phenyl)(4-(6-(trifluoromethyl)pyridin-3-yl)piperazin-1-yl) methanone] | 
23 | 0 | 26 | 85 | COC1(c2ccc(C(=O)N3CCN(c4ccc(C(F)(F)F)cn4)CC3)cc2)COC1 [Example 218, (4-(3-methoxyoxetan-3-yl)phenyl)(4-(5-(trifluoromethyl)pyridin-2-yl)piperazin-1-yl)methanone] | 
24 | 4 | 41 | 15 | CCOC1(c2ccc(C(=O)N3CCN(c4ccc(C(F)(F)F)cn4)CC3)cc2)COC1 [Example 219, (4-(3-ethoxyoxetan-3-yl)phenyl)(4-(5-(trifluoromethyl)pyridin-2-yl)piperazin-1-yl)methanone] | 
25 | 0 | 28 | 66 | COC1(c2cccc(C(=O)N3CCN(c4ccc(C(F)(F)F)cn4)CC3)c2)COC1 [Example 221, (3-(3-methoxyoxetan-3-yl)phenyl)(4-(5-(trifluoromethyl)pyridin-2-yl)piperazin-1-yl)methanone] | 

Source: patent US20230089247A1, “NOVEL COMPOUNDS SUITABLE FOR THE TREATMENT OF DYSLIPIDEMIA” (ZYDUS LIFESCIENCES LIMITED, priority 2019, published 2023)
